Test results from patent publication US5475029A, “Farnesyl compounds as cholesterol lowering agents” (The Board of Trustees of the Leland Stanford Junior …, priority 1993, dated 1995).

How the values were obtained:
[1] = tested on: HMGal; experiment: HMGal activity (in vitro β-galactosidase specific activity) in CHO-HMGal cells; format: cell-based; details: for reduction in HMGal activity at concentrations below the levels toxic to the cells: five isoprenoid compounds tested
Procedure: (§1) Cell Culture--All cells were grown as monolayers at 37° C. in an atmosphere of 5% CO2. CHO-HMGal cells were grown in minimal essential medium (MEM) supplemented with 0.25 mg/ml active geneticin and either 5% fetal calf serum (FCS) or 5% lipid-poor fetal calf serum (LPS).
Stock Solutions--Stock solutions of farnesyl acetate, ethyl farnesyl ether, and the mixture of 25-hydroxycholesterol with cholesterol were all made in 100% ethanol at 100 times the final concentration. In all experiments in which these compounds were used, there is a final concentration of 1% ethanol in the medium. For control, cells grown with "no additives" or "mevalonate" 100% ethanol was added to the medium to bring the final concentration of ethanol to 1%. The mevalonate stock solution was prepared at a concentration of 2M in 20 mM potassium phosphate buffer (pH 4.5).
(§2) β-galactosidase Specific Activity--In vitro β-galactosidase activity was measured using the substrate, o-nitrophenyl-β-D-galactopyranoside. Specific activities were calculated using protein concentration values.
Farnesyl acetate and ethyl farnesyl ether stimulate a reduction in HMGal activity--In an attempt to identify tile non-sterol metabolite(s) that triggers the down regulation of HMG-CoA reductase, five commercially available isoprenoid compounds were tested for their effects on HMGal activity in CHO-HMGal cells. Each of tile compounds tested closely resembled one of tile naturally occurring isoprenoid pyrophosphates, except that the pyrophosphate group had been replaced by either a hydroxyl or an […] group. The compounds tested included: 3-methyl-2-buten-1-ol, the alcohol of the five carbon isoprenoid-dimethylallyl pyrophosphate (a naturally occurring isomer of isopentenyl pyrophosphate); geraniol and geranyl acetate, the alcohol and the […] of the ten carbon isoprenoid-geranyl pyrophosphate; and farnesol and farnesyl acetate, the alcohol and the […] of the fifteen carbon isoprenoid-farnesyl pyrophosphate.
(§3) To confirm that the reduction in HMGal activity was the result of a regulatory function specifically targeting the membrane domain of HMGal, the effects of farnesyl acetate on β-galactosidase activity were measured in vitro for both CHO-HMGal cells and CHO-Gal cells. The CHO-Gal cells had been stably transfected with a construct identical to the HMGal construct (using the same vector, promoter, and 5' and 3' flanking regions) except that the construct in the CHO-Gal cells codes for a soluble β-galactosidase protein instead of the HMGal fusion protein with the membrane domain of HMG-CoA reductase. In this experiment, the CHO-Gal cells served to control for any artifacts farnesyl acetate might cause in the β-galactosidase assay or any nonspecific effects farnesyl acetate might have on the rates of protein synthesis or degradation.

[2] = tested on: cholesterol biosynthetic pathway; experiment: TLC distribution of [3H]acetate-derived non-saponifiable lipids (site of metabolic block); format: cell-based; set-up: radioactivity in the cell-derived fraction co-migrating with lanosterol / radioactivity in the cell-derived fraction co-migrating with squalene / radioactivity in the cell-derived fraction co-migrating with cholesterol / remaining radioactivity in the cell-derived fraction scattered throughout the rest of the TLC lane: concentration or dose not given beside the values
Procedure: Lipid Saponification and Extraction Procedure Saponification and extraction of lipids from cell and media samples was performed as previously described in Bradfute, et al. (1992) J.B.C. 267:18308-18314.
(§4) Thin Layer Chromatography--TLC was performed using Analtech 250 μm silica gel G plates with a hexanes/diethyl ether (1:1) solvent system. Lipid standards were visualized by iodine staining. Bands were scraped from the plate and their radioactivity was measured.
(§5) Quantification of Radioactivity--Samples were suspended in 4 ml of scintillation fluid (Cytoscint from ICN). The radioactivity of the samples was measured using a Beckman LS-7500 scintillation counter.
To determine tile site of tile metabolic block caused by farnesyl acetate and ethyl farnesyl ether, the non-saponifiable lipids from cells grown in the presence of the farnesyl compounds were examined for the accumulation of intermediates in the cholesterol biosynthetic pathway. The cells were only labeled for 1 hour and only treated with the farnesyl compounds during the labeling period; so that any intermediates which accumulated would be as a result of the inhibitory effects of the farnesol compounds and not subsequent regulatory effects on HMG-CoA reductase. CHO-HMGal cells were incubated with [^3 H]acetate and either farnesyl acetate, ethyl farnesyl ether, or no additive. The non-saponifiable lipids were isolated from both the cell, and the medium and separated by TLC.

[3] = tested on: HMG-CoA reductase; experiment: HMG-CoA reductase degradation rate (pulse-chase); format: cell-based; details: 10 μg/ml during chase; untreated 9.3 hours
Procedure: (§6) Measurement of HMGal and HMG-CoA Reductase Degradation Rates Cells grown in 60×15 mm dishes were washed once with ice-cold PBS and starved for 1 hour in 1 ml of methionine-free MEM supplemented with 5% LPS, 250 μg/ml of active geneticin, 10 μM compactin, and 0.1 mM mevalonate. These cells were radio-labeled for 2 hours in 300 μl of the methionine-free starvation medium containing 100 μCi of Tran^35 S-label (>1,000 Ci/mmol). Cells were incubated in an MEM-based chase medium containing 2 mM methionine, 5% LPS, 250 μg/ml of active geneticin, 10 μM compactin, and 0.1 mM mevalonate. During the chase period, some plates also had either 20 mM mevalonate, 10 μg/ml farnesyl acetate or 10 μg/ml ethyl farnesyl ether added to them as indicated in the figure legend. Following the chase, cells were washed, lysed and the HMGal and HMG-CoA reductase proteins were immunoprecipitated, subjected to SDS-PAGE and quantified.
(§7) In order to test whether the farnesyl compounds impact degradation, the rates of degradation for HMGal, HMG-CoA reductase, and total cellular protein were measured in the presence and absence of 10 μg/ml farnesyl acetate and ethyl farnesyl ether.

[4] = tested on: β-galactosidase; experiment: β-galactosidase activity in CHO-Gal control cells; format: cell-based
Procedure: as §2, §3

[5] = tested on: cholesterol biosynthesis; experiment: [3H]acetate incorporation into cholesterol in CHO-HMGal cells; format: cell-based
Procedure: as §4, §5
Subsequently, the cells were labeled for 1,2, and 4 hours with [^3 H]acetate and harvested. The non-saponifiable lipid fraction from each cell type was extracted and separated by TLC. The radioactivity that co-migrated with cholesterol was measured and normalized for the amount of cellular protein.
Farnesyl acetate and ethyl farnesyl ether were only present during the labeling period so that any reduction in incorporation into cholesterol would be the result of inhibition and not a down regulation in HMG-CoA reductase.

[6] = tested on: CHO-HMGal cells; experiment: Cell growth of CHO-HMGal cells in farnesyl compounds; format: cell-based; details: 20 μg/ml
Procedure: as §1
Cell growth in farnesyl acetate and ethyl farnesyl ether CHO-HMGal cells were grown in a range of farnesyl acetate and ethyl farnesyl ether concentrations, in order to determine the optimal concentration of the farnesyl compounds to use in subsequent experiments.

[7] = tested on: total cellular protein; experiment: Total cellular protein degradation; format: cell-based; details: 10 μg/ml
Procedure: as §6, §7

[8] = tested on: HMGal; experiment: HMGal degradation rate (pulse-chase); format: cell-based; details: 10 μg/ml during chase; untreated 6.4 hours
Procedure: as §6, §7

[9] = tested on: HMGal; experiment: HMGal synthesis rate ([35S]methionine incorporation); format: cell-based; details: 20 mM
Procedure: (§8) Measurement of HMGal and HMG-CoA Reductase Synthesis Rates Cells plated into 60×15 mm dishes were grown in 5% LPS MEM with 0.25 mg/ml active geneticin for 24 hours. These cells were washed with PBS and grown for 24 hours in 5% LPS MEM supplemented with 0.25 mg/ml active geneticin, 10 μM compactin and 0.1 mM mevalonate. After 24 hours, the medium was removed, the cells were washed with PBS and the medium was replaced with methionine-free MEM supplemented with 5% LPS, 250 μg/ml of active geneticin, 10 μM compactin, and 0.1 mM mevalonate. In addition, 20 mM mevalonate or 10 μg/ml farnesyl acetate was included in those plates previously treated with these compounds. […] Cells were washed, lysed and the HMGal and HMG-CoA reductase proteins were immunoprecipitated, subjected to SDS-PAGE and quantified. […]
(§9) Farnesyl compounds reduce translation and stimulate degradation of HMG-CoA reductase and HMGal A reduction in HMGal specific activity triggered by the farnesyl compounds could have been the result of a decrease in HMGal synthesis, an increase in HMGal degradation, or a combination of changes in both the synthesis and degradation rates. In order to test whether the farnesyl compounds impact synthesis, the rates of HMGal, HMG-CoA reductase, and total cellular protein synthesis were measured by [^35 S]methionine incorporation in the presence and absence of 10 μg/ml farnesyl acetate.

[10] = tested on: HMG-CoA reductase; experiment: HMG-CoA reductase synthesis rate ([35S]methionine incorporation); format: cell-based; details: 20 mM
Procedure: as §8, §9

[11] = tested on: squalene synthase; experiment: Squalene synthase assay (cell lysate); format: biochemical; details: 1 nM to 50 μM
Procedure: Squalene Synthase Assay--The cell lysate was prepared immediately prior to running the assay. Cells were washed three times with PBS, once with a 0.1M potassium phosphate buffer (pH 7.4) containing 5 mM MgCl2 and 5 mM CHAPS, and once with a 0.01M potassium phosphate buffer (pH 7.4) containing 0.5 mM MgCl2 and 0.5 mM CHAPS. Cells were scraped with a rubber policeman in approximately 0.5 ml of the final wash buffer and dounce homogenized with 20 strokes, while on ice. An aliquot of cell lysate was examined with a light microscope to ensure that essentially all cells in the sample were lysed. An additional aliquot of cell lysate was saved for protein determination. […] The squalene was isolated by TLC and the radioactivity of the squalene bands was measured as previously described. […]
Since both farnesyl compounds have a structural similarity to farnesyl pyrophosphate, the substrate for squalene synthase, and some of the farnesyl compounds that have been tested function as a competitive inhibitor of squalene synthase, the effects of farnesyl acetate on in vitro squalene synthase activity was measured. As a positive control, squalene synthase activity was also measured in tile presence of zaragozic acid A, a potent competitive inhibitor of the enzyme. […]

[12] = 1 hour labeling with [3H]acetate, compound only during labeling

Structure (SMILES): CC(C)=CCO [3-methyl-2-buten-1-ol, reference compound]
- reduction in HMGal activity at concentrations below the levels toxic to the cells [1]: only farnesyl acetate stimulated a reduction in HMGal activity

Structure (SMILES): CCOCC=C(C)CCC=C(C)CCC=C(C)C [ethyl farnesyl ether]
- reduction of HMGal activity ([1]; 10 μg/ml, 24 hour treatment): 40%
- reduction of HMGal activity ([1]; 20 μg/ml): 50%
- radioactivity in the cell-derived fraction co-migrating with cholesterol [2, 12]: 1%
- radioactivity in the cell-derived fraction co-migrating with lanosterol [2, 12]: 48%
- radioactivity in the cell-derived fraction co-migrating with squalene [2, 12]: 45%
- remaining radioactivity in the cell-derived fraction scattered throughout the rest of the TLC lane [2, 12]: 6%
- total non-saponifiable radioactivity found in the medium ([2]; untreated 6%): 14%
- total non-saponifiable radioactivity found in the cells ([2]; untreated 94%): 86%
- increase in media-derived material co-migrating with farnesol ([2]; versus untreated sample): 2 fold
- half-life of HMG-CoA reductase [3]: 2.9 h
- reduction of the half-life of HMG-CoA reductase [3]: 70%
- change of β-galactosidase activity of CHO-Gal cells ([4]; 10 μg/ml): insignificant
- change of β-galactosidase activity of CHO-Gal cells ([4]; 20 μg/ml): essentially unchanged
- reduction in [3H]acetate incorporation into cholesterol ([5]; 24 hours pretreatment, then labeled 1, 2 and 4 hours, CHO-HMGal cells): 95%
- reduction in [3H]acetate incorporation into cholesterol ([5]; compound present only during the labeling period, no pretreatment): 98%
- reduction in cell growth [6]: approximately 60%
- effect on the degradation of total cellular protein [7]: Neither farnesyl compound had a significant effect
- half-life of HMGal [8]: 3.0 h
- reduction of the half-life of HMGal [8]: 50%

Structure (SMILES): CC(C)=CCCC(C)=CCCC(C)=CCO [farnesol, reference compound]
- reduction in HMGal activity at concentrations below the levels toxic to the cells [1]: only farnesyl acetate stimulated a reduction in HMGal activity

Structure (SMILES): CC(C)=CCC/C(C)=C/CO [geraniol, reference compound]
- reduction in HMGal activity at concentrations below the levels toxic to the cells [1]: only farnesyl acetate stimulated a reduction in HMGal activity

Structure (SMILES): CC(=O)OC/C=C(\C)CCC=C(C)C [geranyl acetate, reference compound]
- reduction in HMGal activity at concentrations below the levels toxic to the cells [1]: only farnesyl acetate stimulated a reduction in HMGal activity

Structure (SMILES): CC(O)(CCO)CC(=O)O (centres unmarked) [mevalonate, reference compound]
- reduction in the rate of HMGal synthesis [9]: 70%
- reduction in HMG-CoA reductase synthesis [10]: 70%

Structure (SMILES): C=C(CC[C@]12O[C@H](C(=O)O)[C@@](O)(C(=O)O)[C@](C(=O)O)(O1)[C@H](OC(=O)/C=C/[C@@H](C)C[C@@H](C)CC)[C@H]2O)[C@@H](OC(C)=O)[C@H](C)Cc1ccccc1 [zaragozic acid A, reference compound]
- inhibition of in vitro squalene synthase activity [11]: more than 90%
